Assay results as given in the supplement of paper PMC6045584.
± gives the standard deviation of the averaged measurements.

Legend:
[1] = compound: CC[C@@H]1C(=O)N(C)c2cnc(Nc3ccc(C(=O)NC4CCN(C)CC4)cc3OC)nc2N1C1CCCC1 [BI-2536]; experiment: surviving fraction relative to DMSO-only wells; higher = less growth inhibition; settings: exposure time: 5 days
Method in brief: (§1)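 Continuous five-day exposure to inhibitors at 0.5, 1, 5, 10, 50, 100, 500 and 1000 nM started 24 hours after log-phase tumour cell lines were seeded at 250–500 cells per well in 384-well plates. Luminescence was read after 10 minutes at room temperature. Viability is given as surviving fraction, meaning CellTiter-Glo luminescence normalised to the median of DMSO-only wells.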

[2] = compound: CNC(=O)c1ccc(N2C(=S)N(c3ccc(C#N)c(C(F)(F)F)c3)C(=O)C2(C)C)cc1F [MDV3100]; experiment: as above; settings: exposure time: 5 days
Method in brief: as §1

| Test System | surviving fraction ([1]; 0.5 nM) | surviving fraction ([1]; 1 nM) | surviving fraction ([1]; 5 nM) | surviving fraction ([1]; 10 nM) | surviving fraction ([1]; 50 nM) | surviving fraction ([1]; 100 nM) | surviving fraction ([1]; 500 nM) | surviving fraction ([1]; 1000 nM) | surviving fraction ([2]; 0.5 nM) | surviving fraction ([2]; 1 nM) | surviving fraction ([2]; 5 nM) | surviving fraction ([2]; 10 nM) | surviving fraction ([2]; 50 nM) | surviving fraction ([2]; 100 nM) | surviving fraction ([2]; 500 nM) | surviving fraction ([2]; 1000 nM) |
| --- | --- | --- | --- | --- | --- | --- | --- | --- | --- | --- | --- | --- | --- | --- | --- | --- |
| SCC003 HEADNECK | 1.06 ± 0.12 | 0.93 ± 0.027 | 0.467 ± 0.059 | 0.412 ± 0.066 | 0.596 ± 0.074 | 0.582 ± 0.033 | 0.381 ± 0.019 | 0.275 ± 0.028 | 0.928 ± 0.12 | 0.808 ± 0.069 | 1 ± 0.049 | 0.996 ± 0.051 | 1.06 ± 0.032 | 1.02 ± 0.059 | 1.02 ± 0.044 | 0.858 ± 0.098 |
| SUM149.B1*.S BREAST | 1.1 ± 0.091 | 1.05 ± 0.03 | 0.416 ± 0.067 | 0.232 ± 0.031 | 0.269 ± 0.032 | 0.287 ± 0.021 | 0.297 ± 0.045 | 0.229 ± 0.03 | 0.994 ± 0.02 | 0.925 ± 0.017 | 0.979 ± 0.063 | 0.578 ± 0.014 | 1.03 ± 0.04 | 0.9605 ± 0.0031 | 1.02 ± 0.011 | 0.694 ± 0.049 |
| MDAMB468 BREAST | 0.902 ± 0.037 | 0.462 ± 0.048 | 0.0863 ± 0.0084 | 0.111 ± 0.018 | 0.215 ± 0.018 | 1.05 ± 0.061 | 0.111 ± 0.008 | 0.084 ± 0.0027 | 0.972 ± 0.053 | 0.952 ± 0.072 | 1.05 ± 0.11 | 1.01 ± 0.068 | 1.14 ± 0.094 | 1.04 ± 0.13 | 1.05 ± 0.038 | 0.97 ± 0.11 |
| RDES SOFT TISSUE | 1.05 ± 0.086 | 1.11 ± 0.12 | 0.603 ± 0.18 | 0.0407 ± 0.0038 | 0.034 ± 0.0036 | 0.024 ± 0.001 | 0.0287 ± 0.0015 | 0.0297 ± 0.0035 | 1.25 ± 0.1 | 1.07 ± 0.035 | 1.11 ± 0.064 | 1.15 ± 0.11 | 1.2 ± 0.086 | 1.12 ± 0.21 | 1.38 ± 0.074 | 1.25 ± 0.19 |
| HCT15 LARGE INTESTINE | 1.08 ± 0.044 | 1.04 ± 0.011 | 1.07 ± 0.026 | 0.887 ± 0.032 | 0.334 ± 0.048 | 0.0687 ± 0.014 | 0.069 ± 0.004 | 0.0617 ± 0.0076 | 0.906 ± 0.038 | 0.797 ± 0.11 | 0.862 ± 0.075 | 0.548 ± 0.11 | 0.938 ± 0.021 | 0.916 ± 0.027 | 0.968 ± 0.019 | 0.716 ± 0.1 |
| SKBR3 BREAST | 0.914 ± 0.12 | 0.363 ± 0.043 | 0.158 ± 0.026 | 0.189 ± 0.02 | 0.255 ± 0.063 | 0.356 ± 0.045 | 0.321 ± 0.018 | 0.301 ± 0.025 | 1.02 ± 0.093 | 1.09 ± 0.12 | 1.11 ± 0.069 | 1.1 ± 0.17 | 1 ± 0.11 | 1.052 ± 0.0065 | 0.971 ± 0.046 | 1.09 ± 0.18 |
| ZR751 BREAST | 1.22 ± 0.024 | 1.27 ± 0.16 | 0.902 ± 0.075 | 0.655 ± 0.0093 | 0.72 ± 0.13 | 0.865 ± 0.094 | 0.645 ± 0.039 | 0.434 ± 0.061 | 1.12 ± 0.16 | 1.14 ± 0.1 | 1.04 ± 0.042 | 1.04 ± 0.043 | 1.17 ± 0.1 | 1.12 ± 0.076 | 1.22 ± 0.1 | 1.08 ± 0.079 |
